Assay results as given in ChEMBL document CHEMBL3612029, “Design, synthesis and anticancer activity of Michael-type thiol adducts of α-santonin analogue with exocyclic methylene” (Eur J Med Chem, 2015).

Legend:
[1] = tested on: HCT-116; assay: Cytotoxicity against human HCT116 cells assessed as growth inhibition after 48 hrs by sulphorhodamine B assay; assay type: functional, cell-based; conditions: HCT-116, 48 h
[2] = tested on: A549; assay: Cytotoxicity against human A549 cells assessed as growth inhibition after 48 hrs by sulphorhodamine B assay; assay type: functional, cell-based; conditions: A549, 48 h
[3] = tested on: PC-3; assay: Cytotoxicity against human PC3 cells assessed as growth inhibition after 48 hrs by sulphorhodamine B assay; assay type: functional, cell-based; conditions: PC-3, 48 h
[4] = tested on: MCF7; assay: Cytotoxicity against human MCF7 cells assessed as growth inhibition after 48 hrs by sulphorhodamine B assay; assay type: functional, cell-based; conditions: MCF7, 48 h
[5] = molecular target: Transcription factor p65 (Homo sapiens) (UniProt Q04206); assay: Inhibition of NF-kappa-B p65 subunit binding to DNA response element in human MCF7 cell nuclear lysates at 2 uM after 24 hrs relative to control
[6] = tested on: MCF7; assay: Cell cycle arrest in human MCF7 cells assessed as accumulation at subG1 phase after 24 hrs by propidium iodide staining-based flow cytometric analysis; assay type: functional
[7] = tested on: MCF7; assay: Cell cycle arrest in human MCF7 cells assessed as accumulation at subG1 phase at 2 uM after 24 hrs by propidium iodide staining-based flow cytometric analysis (reference value: 4.8%); assay type: functional
[8] = molecular target: Transcription factor p65 (Homo sapiens) (UniProt Q04206); assay: Inhibition of NF-kappa-B p65 subunit binding to DNA response element in human MCF7 cell nuclear lysates after 24 hrs
[9] = molecular target: Transcription factor p65 (Homo sapiens) (UniProt Q04206); assay: Inhibition of NF-kappa-B p65 subunit binding to DNA response element in human MCF7 cell nuclear lysates at 3 uM after 24 hrs relative to control
[10] = tested on: MCF7; assay: Cell cycle arrest in human MCF7 cells assessed as accumulation at subG1 phase at 1.5 uM after 24 hrs by propidium iodide staining-based flow cytometric analysis (reference value: 4.8%); assay type: functional
[11] = molecular target: Transcription factor p65 (Homo sapiens) (UniProt Q04206); assay: Inhibition of NF-kappa-B p65 subunit binding to DNA response element in human MCF7 cell nuclear lysates at 1.5 uM after 24 hrs relative to control
[12] = tested on: MCF7; assay: Cell cycle arrest in human MCF7 cells assessed as accumulation at subG1 phase at 1 uM after 24 hrs by propidium iodide staining-based flow cytometric analysis (reference value: 4.8%); assay type: functional
[13] = molecular target: Transcription factor p65 (Homo sapiens) (UniProt Q04206); assay: Inhibition of NF-kappa-B p65 subunit binding to DNA response element in human MCF7 cell nuclear lysates at 1 uM after 24 hrs relative to control
[14] = tested on: MCF7; assay: Cell cycle arrest in human MCF7 cells assessed as accumulation at subG1 phase at 5 uM after 24 hrs by propidium iodide staining-based flow cytometric analysis (reference value: 4.8%); assay type: functional

Transcription factor p65 (Homo sapiens), sequence (Q04206 whole entry): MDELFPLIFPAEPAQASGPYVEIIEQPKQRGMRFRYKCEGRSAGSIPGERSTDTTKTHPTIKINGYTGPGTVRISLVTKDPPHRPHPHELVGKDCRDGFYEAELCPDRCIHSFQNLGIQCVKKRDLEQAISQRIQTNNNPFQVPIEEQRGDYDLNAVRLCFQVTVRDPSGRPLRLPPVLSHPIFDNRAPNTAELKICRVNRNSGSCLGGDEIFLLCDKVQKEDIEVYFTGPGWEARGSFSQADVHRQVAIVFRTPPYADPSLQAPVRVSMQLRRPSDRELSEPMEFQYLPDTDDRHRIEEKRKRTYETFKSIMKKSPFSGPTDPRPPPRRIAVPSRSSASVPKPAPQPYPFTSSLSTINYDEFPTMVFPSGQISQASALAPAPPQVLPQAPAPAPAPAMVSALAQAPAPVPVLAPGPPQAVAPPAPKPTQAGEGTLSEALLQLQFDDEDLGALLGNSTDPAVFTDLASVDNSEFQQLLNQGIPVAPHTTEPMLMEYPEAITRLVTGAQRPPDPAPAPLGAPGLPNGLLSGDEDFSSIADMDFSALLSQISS

Row | SMILES | IC50 [1] [µM] | IC50 [2] [µM] | IC50 [3] [µM] | IC50 [4] [µM] | further results
1 | CC1=C2[C@H]3OC(=O)[C@@H](CSc4ccccc4)[C@@H]3CC[C@@]2(C)C=CC1=O | 19.1 | 19.8 | 25.9 | 25.2 | –
2 | C=C1C(=O)O[C@@H]2C3=C(C)C(=O)C=C[C@]3(C)CC[C@@H]12 | 31.5 | > 50 | 32.7 | 25.2 | –
3 | CC1=C2[C@H]3OC(=O)[C@@H](CSc4ccccc4Cl)[C@@H]3CC[C@@]2(C)C=CC1=O | 16.6 | 6.6 | 9.1 | 23.2 | –
4 | CCSC[C@@H]1C(=O)O[C@@H]2C3=C(C)C(=O)C=C[C@]3(C)CC[C@@H]12 | 16.5 | 12.2 | 9.9 | 23.5 | –
5 | CC1=C2[C@H]3OC(=O)[C@@H](CSC4CCCCC4)[C@@H]3CC[C@@]2(C)C=CC1=O | > 50 | 45.2 | > 50 | > 50 | –
6 | CC1=C2[C@H]3OC(=O)[C@@H](CSc4ccc(F)c(F)c4)[C@@H]3CC[C@@]2(C)C=CC1=O | 0.7 | 5.9 | 2.9 | 1 | –
7 | CC1=C2[C@H]3OC(=O)[C@@H](CSc4ccccc4Br)[C@@H]3CC[C@@]2(C)C=CC1=O | 1.1 | 2.8 | 2.6 | 2.3 | –
8 | CC1=C2[C@H]3OC(=O)[C@@H](CSc4ccc(C)cc4)[C@@H]3CC[C@@]2(C)C=CC1=O | 12.1 | 7.4 | 5.7 | 6 | –
9 | CC1=C2[C@H]3OC(=O)[C@@H](CSc4ccc(F)cc4)[C@@H]3CC[C@@]2(C)C=CC1=O | 0.8 | 1.1 | 4.5 | 7.3 | –
10 | CC1=C2[C@H]3OC(=O)[C@@H](CSc4ccc(C)c(Br)c4)[C@@H]3CC[C@@]2(C)C=CC1=O | 0.8 | 4.1 | 31 | 20.2 | –
11 | CC1=C2[C@H]3OC(=O)[C@@H](CSc4ccccc4N)[C@@H]3CC[C@@]2(C)C=CC1=O | 13 | 30.7 | 10.8 | 7.8 | –
12 | CC1=C2[C@H]3OC(=O)[C@@H](CSc4ccc(Cl)cc4)[C@@H]3CC[C@@]2(C)C=CC1=O | 0.8 | 2.7 | 2.1 | 1 | inhibition [5]: 49%; Activity [6]: Dose-dependent effect; Activity [7]: 46.6%; inhibition [8]: Dose-dependent effect; inhibition [9]: 62%; Activity [10]: 45.1%; inhibition [11]: 36%
13 | CC1=C2[C@H]3OC(=O)[C@@H](CSc4ccccn4)[C@@H]3CC[C@@]2(C)C=CC1=O | 0.5 | 4.1 | 1.9 | 0.4 | Activity [12]: 38%; inhibition [13]: 27%; inhibition [8]: Dose-dependent effect; Activity [10]: 44.6%; inhibition [11]: 43%
14 | CC1=C2[C@H]3OC(=O)[C@@H](CSc4ccc(Br)cc4C)[C@@H]3CC[C@@]2(C)C=CC1=O | 1.4 | 10 | 8.5 | 8.5 | –
15 | CC1=C2[C@H]3OC(=O)[C@@H](CSc4ccccc4C)[C@@H]3CC[C@@]2(C)C=CC1=O | 21.5 | 0.9 | 20.7 | 20.9 | –
16 | CC1=C2[C@H]3OC(=O)[C@@H](CSc4ccccc4F)[C@@H]3CC[C@@]2(C)C=CC1=O | 0.9 | 1.8 | 2 | 1.2 | –
17 | CC1=C2[C@H]3OC(=O)[C@@H](CSc4ncc[nH]4)[C@@H]3CC[C@@]2(C)C=CC1=O | 0.8 | 8.8 | 4.7 | 2.4 | –
18 | O=c1[nH]cc(F)c(=O)[nH]1 [FLUOROURACIL] | 4.5 | – | – | – | –
19 | CC1=C2[C@H]3OC(=O)[C@@H](CSc4nc5ccccc5n4C)[C@@H]3CC[C@@]2(C)C=CC1=O | 20.7 | 42 | 34.9 | 39.2 | –
20 | CC1=C2[C@H]3OC(=O)[C@@H](CSc4ccc(Br)cc4)[C@@H]3CC[C@@]2(C)C=CC1=O | 1.2 | 2.4 | 1.5 | 0.6 | Activity [12]: 36.8%; inhibition [5]: 57%; Activity [6]: Dose-dependent effect; inhibition [8]: Dose-dependent effect; Activity [10]: 44.5%; inhibition [11]: 45%
21 | COc1ccc(SC[C@@H]2C(=O)O[C@@H]3C4=C(C)C(=O)C=C[C@]4(C)CC[C@@H]23)cc1 | 24.9 | 8.9 | 13.1 | 21.4 | –
22 | CC1=C2[C@H]3OC(=O)[C@@H](CSc4nc5ccccc5c(=O)[nH]4)[C@@H]3CC[C@@]2(C)C=CC1=O | 20.3 | 18.3 | 31.1 | 17.2 | –
23 | CC1=C2[C@H]3OC(=O)[C@@H](C)[C@@H]3CC[C@@]2(C)C=CC1=O [SANTONIN] | > 50 | > 50 | > 50 | > 50 | –
24 | CC[C@@]1(O)C(=O)OCc2c1cc1n(c2=O)Cc2cc3ccccc3nc2-1 [CAMPTOTHECIN] | – | – | – | – | Activity [14]: 52.4%
25 | COc1ccccc1SC[C@@H]1C(=O)O[C@@H]2C3=C(C)C(=O)C=C[C@]3(C)CC[C@@H]12 | 45.9 | > 50 | 40.7 | 36.1 | –
